# According to patent publication US7368578B2, “Five-membered heterocyclic compounds” (Takeda Pharmaceutical Company Limited, priority 2002, dated 2008):
# Molecular target: T1, human PPARγ1 (Homo sapiens, UniProt P37231)
# T1 construct: expressed in transfected cells; host or cells: CHO-K1 cells stably transfected with pVgRXR2-hPPARγ and reporter plasmid pGL3-4ERPP-TK neo
# T1 sequence (P37231 1-477 isoform P37231-2): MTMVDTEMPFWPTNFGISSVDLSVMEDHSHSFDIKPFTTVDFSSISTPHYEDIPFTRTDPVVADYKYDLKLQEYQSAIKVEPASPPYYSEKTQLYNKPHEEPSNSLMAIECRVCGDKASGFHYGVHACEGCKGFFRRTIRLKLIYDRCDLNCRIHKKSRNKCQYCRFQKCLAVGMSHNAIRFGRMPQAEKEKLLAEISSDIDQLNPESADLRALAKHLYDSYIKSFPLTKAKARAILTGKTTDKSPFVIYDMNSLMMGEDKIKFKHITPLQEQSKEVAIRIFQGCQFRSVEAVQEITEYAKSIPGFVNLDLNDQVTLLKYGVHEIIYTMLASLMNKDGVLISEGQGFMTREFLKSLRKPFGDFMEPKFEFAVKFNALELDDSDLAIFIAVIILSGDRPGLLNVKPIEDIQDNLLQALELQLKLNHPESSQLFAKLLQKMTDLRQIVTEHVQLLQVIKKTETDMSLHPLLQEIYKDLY
# T1 sequence (P19793 1-462 partner): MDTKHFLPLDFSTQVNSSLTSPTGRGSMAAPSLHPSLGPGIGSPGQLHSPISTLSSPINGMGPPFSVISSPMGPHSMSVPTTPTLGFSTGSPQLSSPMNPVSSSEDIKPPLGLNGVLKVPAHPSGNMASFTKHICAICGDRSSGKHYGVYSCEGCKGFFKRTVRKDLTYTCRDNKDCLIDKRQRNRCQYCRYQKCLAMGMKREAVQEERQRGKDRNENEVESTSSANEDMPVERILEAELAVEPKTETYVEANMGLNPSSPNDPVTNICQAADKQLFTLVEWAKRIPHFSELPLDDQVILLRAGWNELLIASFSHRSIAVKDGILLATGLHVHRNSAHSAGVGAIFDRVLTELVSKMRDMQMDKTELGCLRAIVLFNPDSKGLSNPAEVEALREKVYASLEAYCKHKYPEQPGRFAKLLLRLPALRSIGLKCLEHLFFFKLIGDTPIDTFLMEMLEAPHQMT
# Assay: Human PPARγ1 antagonist assay (luciferase reporter in PPARγ:RXRα:4ERPP/CHO-K1 cells)
# Format: cell-based
# Conditions: test compound 10^−6 M, 10 nM compound A as stimulant, luciferase activity, 24 hrs, read-out: Inhibitory rate (%)
# Description: PPARγ:RXRα:4ERPP/CHO-K1 cells (obtained in Reference Example 5a) cultured in Ham's F-12 medium (GIBCO, Inc.) supplemented with 10% fetal bovine serum (TRACE SCIENTIFIC, Ltd.) were seeded in a well of a 96 well white plate at 2×10^4 cells/well and cultured under 37° C. 5% CO2 conditions for 24 hrs. After removal of the medium, Ham's F-12 medium (GIBCO) containing 60 μl of 0.1% BSA (not containing fatty acid) (Wako Pure Chemical Industries, Ltd.), 20 μl of 10^−5M or 10^−6 M test compound and 20 μl of compound A having a final concentration of 10 nM as a stimulant were added, and the cells were cultured under 37° C. 5% CO2 conditions for 24 hrs. After removal of the medium, 40 μl of Pickagene LT7.5 (Wako Pure Chemical Industries, Ltd.) 2-fold diluted with HBSS (HANKS' BALANCED SALT SOLUTION) (BIO WHITTAKER Inc.) was added. After stirring, luciferase activity was measured using 1420 ARVO Multilabel Counter (Wallac, Inc.). In addition, a test similar to the above was conducted for the non-use of the aforementioned test compound alone and for the non-use of the aforementioned test compound and compound A to determine the luciferase activity.
# The human PPARγ1 antagonistic activity of the test compound was evaluated using percentages (% inhibition) wherein the luciferase activity when 10 nM compound A alone was added was 0%, and the luciferase activity when the test compound and compound A were not added was 100%. The concentration of the test compound was 10^−5 M for the compounds of Example 42 and 315 and 10^−6 M for other test compounds.
# After a CHO-K1 cell cultured in a cell culture flask (150 cm^2) (produced by Corning Costar Corporation, USA) containing Ham's F-12 medium (produced by Life Technologies, Inc., USA) supplemented with 10% fetal bovine serum (produced by Life Technologies, Inc., USA) was detached by treating with 0.5 g/L trypsin-0.2 g/L EDTA (ethylenediaminetetraacetic acid) (produced by Life Technologies, Inc., USA), the cell was washed with PBS (phosphate-buffered saline) (produced by Life Technologies, Inc., USA), centrifuged (1000 rpm, 5 minutes), and then suspended in PBS. Subsequently, the DNA was introduced into the cells under the conditions shown below using GENE PULSER (produced by Bio-Rad Laboratories, USA).
# Namely, to a cuvette having a 0.4 cm gap, added were 8×10^6 cells and 10 μg of plasmid pVgRXR2-hPPARγ obtained in Reference Example 4a and 10 μg of reporter plasmid pGL3-4ERPP-TK neo obtained in Reference Example 2a, which was subjected to electroporation at the voltage of 0.25 kV under the capacitance of 960 μF. Subsequently, the cell was transferred into a Ham's F-12 medium containing 10% fetal bovine serum and cultured for 24 hours and then the cells were detached again and centrifuged, and then suspended in HAM F12 medium containing 10% fetal bovine serum supplemented with 500 μg/ml of GENETICIN (produced by Life Technologies, Inc., USA) and 250 μg/ml of ZEOCIN (produced by Invitrogen, USA). The obtained suspension was diluted to the density of 10^4 cells/ml and inoculated to a 96-well plate (produced by Corning Costar Corporation, USA), which was cultured in a CO2 gas incubator at 37° C., whereby obtaining a GENETICIN- and ZEOCIN-resistant transformant. Subsequently, after the transformant cell line thus obtained was cultured in a 24-well plate (produced by Corning Costar Corporation, USA), selected was a cell line in which the luciferase was expressed and induced, i.e., PPARγ:RXRα:4ERPP/CHO-K1 cell by the addition of 10 μM pioglitazone hydrochloride.
row,Structure (SMILES),inhibition at 1 µM [%]
1,"COc1cc(COc2nn(-c3ccccc3)cc2CO)ccc1OCc1nc(-c2ccco2)oc1C [Example 75, {3-[(4-{[2-(2-furyl)-5-methyl-1,3-oxazol-4-yl]methoxy}-3-methoxybenzyl)oxy]-1-phenyl-1H-pyrazol-4-yl}methanol]",70
2,"CCOP(=O)(CCc1cn(-c2ccccc2)nc1OCc1ccc(OCc2nc(-c3ccco3)oc2C)c(OC)c1)OCC [Example 100, diethyl 2-{3-[(4-{[2-(2-furyl)-5-methyl-1,3-oxazol-4-yl]methoxy}-3-methoxybenzyl)oxy]-1-phenyl-1H-pyrazol-4-yl}ethylphosphonate]",74
3,"CCOP(=O)(/C=C/c1cn(-c2ccccc2)nc1OCc1ccc(OCc2nc(-c3ccco3)oc2C)c(OC)c1)OCC [Example 116 (E form), diethyl (E)-2-{3-[(4-{[2-(2-furyl)-5-methyl-1,3-oxazol-4-yl]methoxy}-3-methoxybenzyl)oxy]-1-phenyl-1H-pyrazol-4-yl}ethenylphosphonate]",97
4,"CCOP(=O)(/C=C/c1cn(-c2ccccc2)nc1OCc1ccc(OCc2nc(-c3ccc(CC(=O)O)cc3)oc2C)c(OC)c1)OCC [Example 241, {4-[4-({4-[({4-[(E)-2-(diethoxyphosphoryl)ethenyl]-1-phenyl-1H-pyrazol-3-yl}oxy)methyl]-2-methoxyphenoxy}methyl)-5-methyl-1,3-oxazol-2-yl]phenyl}acetic acid]",113
5,"CCOP(=O)(/C=C/c1cn(-c2ccccc2)nc1OCc1ccc(OCc2nc(-c3cccc(CC(=O)O)c3)oc2C)c(OC)c1)OCC [Example 249, {3-[4-({4-[({4-[(E)-2-(diethoxyphosphoryl)ethenyl]-1-phenyl-1H-pyrazol-3-yl}oxy)methyl]-2-methoxyphenoxy}methyl)-5-methyl-1,3-oxazol-2-yl]phenyl}acetic acid]",108
6,"CCOP(=O)(/C=C/c1cn(-c2ccccc2)nc1OCc1ccc(OCc2nc(-c3cccc(-c4nnn[nH]4)c3)oc2C)c(OC)c1)OCC [Example 336, {(E)-2-(3-{[3-methoxy-4-({5-methyl-2-[3-(1H-tetrazol-5-yl)phenyl]-1,3-oxazol-4-yl}methoxy)benzyl]oxy}-1-phenyl-1H-pyrazol-4-yl)ethenyl}phosphonate diethyl]",102
7,"CCc1nc(/C=C/c2cn(-c3ccccc3)nc2OCc2ccc(OCc3nc(-c4ccc(CC(=O)O)cc4)oc3C)c(OC)c2)cs1 [Example 337, {4-[4-({4-[({4-[(E)-2-(2-ethyl-1,3-thiazol-4-yl)ethenyl]-1-phenyl-1H-pyrazol-3-yl}oxy)methyl]-2-methoxyphenoxy}methyl)-5-methyl-1,3-oxazol-2-yl]phenyl}acetic acid]",110
8,"COc1cc(COc2nn(-c3ccccc3)cc2/C=C/c2csc(C)n2)ccc1OCc1nc(-c2ccc(CC(=O)O)cc2)oc1C [Example 357, {4-[4-({2-methoxy-4-[({4-[(E)-2-(2-methyl-1,3-thiazol-4-yl)ethenyl]-1-phenyl-1H-pyrazol-3-yl}oxy)methyl]phenoxy}methyl)-5-methyl-1,3-oxazol-2-yl]phenyl}acetic acid]",103
9,"COc1cc(COc2nn(-c3ccccc3)cc2/C=C/c2csc(C(C)C)n2)ccc1OCc1nc(-c2ccc(CC(=O)O)cc2)oc1C [Example 361, {4-[4-({4-[({4-[(E)-2-(2-isopropyl-1,3-thiazol-4-yl)ethenyl]-1-phenyl-1H-pyrazol-3-yl}oxy)methyl]-2-methoxyphenoxy}methyl)-5-methyl-1,3-oxazol-2-yl]phenyl}acetic acid]",110
10,"CCc1nc(/C=C/c2cn(-c3ccccc3)nc2OCc2ccc(OCc3nc(-c4ccc(CC(=O)O)cc4)oc3C)c(OC)c2)co1 [Example 369, {4-[4-({4-[({4-[(E)-2-(2-ethyl-1,3-oxazol-4-yl)ethenyl]-1-phenyl-1H-pyrazol-3-yl}oxy)methyl]-2-methoxyphenoxy}methyl)-5-methyl-1,3-oxazol-2-yl]phenyl}acetic acid]",108
